Key:
Assay in all cases: NCI DTP human tumor cell line screen (SRB)
Format in all cases: cell-based
[1] = system: T-47D; conditions: Breast Cancer, 10 μM, 48 h
Protocol: (§1) Representative compounds of the invention, prepared as described in EXAMPLES 1-6, were submitted to the Developmental Therapeutics Program of the United States National Cancer Institute (NCl) to screen for anti-cancer activity. The anti-cancer activities of the six compounds were tested against approximately 60 human tumor cell lines representing leukemia, melanoma, and cancers of the lung, colon, breast, ovary, kidney, prostate, and brain. The following screening methodology was provided by the NCl. […] For experimental screens, cells were inoculated into 96 well microtiter plates in 100 μL at plating densities ranging from 5,000 to 40,000 cells/well depending on the doubling time of individual cell lines. After cell inoculation, the microtiter plates were incubated at 37° C., 5% carbon dioxide, 95% air and 100% relative humidity for 24 hours prior to addition of the compounds. After 24 hours of incubation, two plates of each cell line were fixed in situ with trichloroacetic acid (TCA) to represent a measurement of the cell population for each cell line at the time of compound addition (Tz). The compounds were solubilized in dimethyl sulfoxide at 400-fold the desired final maximum test concentration and stored frozen prior to use. At the time of drug addition, frozen aliquots of the compounds thawed and diluted with complete medium containing 50 μg/ml gentamicin. Aliquots of 100 μl of these different compound dilutions were added to the appropriate microtiter wells already containing 100 μl of medium, resulting in the required final compound concentration of 10 μM. Following compound addition, the plates were incubated for an additional 48 h at 37° C., 5% carbon dioxide, 95% air, and 100% relative humidity. For adherent cells, the assay was terminated by the addition of cold TCA. Cells were fixed in situ by the gentle addition of 50 μl of cold 50% (w/v) TCA (final concentration, 10% TCA) and incubated for 60 minutes at 4° C. The supernatant was discarded, and the plates were washed five times with tap water and air dried. Sulforhodamine B (SRB) solution (100 μl) at 0.4% (w/v) in 1% acetic acid was added to each well, and plates were incubated for 10 minutes at room temperature. After staining, unbound dye was removed by washing five times with 1% acetic acid and the plates were air dried. Bound stain was subsequently solubilized with 10 mM trizma base, and the absorbance was read on an automated plate reader at a wavelength of 515 nm. For suspension cells, the methodology was the same except that the assay was terminated by fixing settled cells at the bottom of the wells by gently adding 50 μl of 80% TCA (final concentration, 16% TCA). Using the three absorbance measurements [time zero, (Tz), control growth, (C), and test growth in the presence of compound (Ti)], the percentage growth was calculated at each of the compound concentrations levels. Percentage growth inhibition was calculated with the following algorithms: [(Ti−Tz)/(C−Tz)]×100 for concentrations for which Ti>/=Tz [(Ti−Tz)/Tz]×100 for concentrations for which Ti<Tz The results of the NCl in vitro anticancer screening with six compounds against various human tumor cell lines are presented below in Tables 2-7. […] The growth percent mean, delta, and range for each compound are given below.

[2] = system: HCT-116; conditions: Colon Cancer, 10 μM, 48 h
Protocol: as §1

[3] = system: SR; conditions: Leukemia, 10 μM, 48 h
Protocol: as §1

[4] = system: HOP-62; conditions: Non-Small Cell Lung Cancer, 10 μM, 48 h
Protocol: as §1

[5] = system: NCI-H226; conditions: Non-Small Cell Lung Cancer, 10 μM, 48 h
Protocol: as §1

[6] = system: NCI-H23; conditions: Non-Small Cell Lung Cancer, 10 μM, 48 h
Protocol: as §1

[7] = system: UO-31; conditions: Renal Cancer, 10 μM, 48 h
Protocol: as §1

[8] = system: MDA-MB-231/ATCC; conditions: Breast Cancer, 10 μM, 48 h
Protocol: as §1

[9] = system: COLO 205; conditions: Colon Cancer, 10 μM, 48 h
Protocol: as §1

[10] = system: SF-295; conditions: CNS Cancer, 10 μM, 48 h
Protocol: as §1

[11] = system: SF-268; conditions: CNS Cancer, 10 μM, 48 h
Protocol: as §1

[12] = system: HCT-15; conditions: Colon Cancer, 10 μM, 48 h
Protocol: as §1

[13] = system: LOX IMVI; conditions: Melanoma, 10 μM, 48 h
Protocol: as §1

[14] = system: MCF7; conditions: Breast Cancer, 10 μM, 48 h
Protocol: as §1

[15] = system: MDA-MB-435; conditions: Breast Cancer, 10 μM, 48 h
Protocol: as §1

[16] = system: CCRF-CEM; conditions: Leukemia, 10 μM, 48 h
Protocol: as §1

[17] = system: MOLT-4; conditions: Leukemia, 10 μM, 48 h
Protocol: as §1

[18] = system: HOP-92; conditions: Non-Small Cell Lung Cancer, 10 μM, 48 h
Protocol: as §1

[19] = system: EKVX; conditions: Non-Small Cell Lung Cancer, 10 μM, 48 h
Protocol: as §1

[20] = system: SF-539; conditions: CNS Cancer, 10 μM, 48 h
Protocol: as §1

[21] = system: PC-3; conditions: Prostate Cancer, 10 μM, 48 h
Protocol: as §1

[22] = system: HT29; conditions: Colon Cancer, 10 μM, 48 h
Protocol: as §1

[23] = system: OVCAR-4; conditions: Ovarian Cancer, 10 μM, 48 h
Protocol: as §1

[24] = system: RPMI-8226; conditions: Leukemia, 10 μM, 48 h
Protocol: as §1

[25] = system: OVCAR-8; conditions: Ovarian Cancer, 10 μM, 48 h
Protocol: as §1

[26] = system: K-562; conditions: Leukemia, 10 μM, 48 h
Protocol: as §1

[27] = system: A498; conditions: Renal Cancer, 10 μM, 48 h
Protocol: as §1

[28] = system: SK-MEL-2; conditions: Melanoma, 10 μM, 48 h
Protocol: as §1

[29] = system: NCI-H460; conditions: Non-Small Cell Lung Cancer, 10 μM, 48 h
Protocol: as §1

[30] = system: U251; conditions: CNS Cancer, 10 μM, 48 h
Protocol: as §1

[31] = system: SNB-19; conditions: CNS Cancer, 10 μM, 48 h
Protocol: as §1

[32] = system: ACHN; conditions: Renal Cancer, 10 μM, 48 h
Protocol: as §1

CC1CCC2C(C)C(OCc3ccc(C(=O)NN=Cc4ccccc4)cc3)OC3OC4(C)CCC1C32OO4 (stereo not drawn) [ART-Phe-Bz, N′-(benzylidene)-4-(dihydroxyartemisinin-methyl)-phenyl carbohydrazide]
Growth Percent [1]: 11.51% | Growth Percent [2]: 5.59% | Growth Percent [3]: −24.04% | Growth Percent [4]: 52.14% | Growth Percent [5]: 29.10% | Growth Percent [6]: 30.10% | Growth Percent [7]: −21.11% | Growth Percent [8]: 26.78% | Growth Percent [9]: 17.72% | Growth Percent [10]: 14.30% | Growth Percent [11]: 35.30% | Growth Percent [12]: 16.27% | Growth Percent [13]: 8.89% | Growth Percent [14]: 11.63% | Growth Percent [15]: 12.48% | Growth Percent [16]: 6.71% | Growth Percent [17]: −25.73% | Growth Percent [18]: 2.94% | Growth Percent [19]: 16.45% | Growth Percent [20]: 25.70% | Growth Percent [21]: 12.32% | Growth Percent [22]: 18.46% | Growth Percent [23]: 18.29% | Growth Percent [24]: 1.50% | Growth Percent [25]: 26.65% | Growth Percent [26]: 7.86% | Growth Percent [27]: 30.47% | Growth Percent [28]: −3.22% | Growth Percent [29]: 32.58% | Growth Percent [30]: 36.35% | Growth Percent [31]: 51.29% | Growth Percent [32]: 16.91%

Cc1ncc(CO)c(C=NNC(=O)c2ccc(COC3OC4OC5(C)CCC6C(C)CCC(C3C)C46OO5)cc2)c1O (stereo not drawn) [ART-Phe-Pyridoxal, N′-(5-hydroxy-3-hydroxymethyl-2-methyl-4-pyridylidene)-4-(dihydroxyartemisinin-methyl)-phenyl carbohydrazide]
Growth Percent [1]: −2.71% | Growth Percent [2]: 15.30% | Growth Percent [3]: −29.75% | Growth Percent [4]: 20.25% | Growth Percent [5]: 4.49% | Growth Percent [6]: 13.86% | Growth Percent [7]: 4.39% | Growth Percent [8]: 29.96% | Growth Percent [9]: −4.40% | Growth Percent [10]: 25.08% | Growth Percent [11]: 1.39% | Growth Percent [12]: 15.22% | Growth Percent [13]: 4.22% | Growth Percent [14]: 1.55% | Growth Percent [15]: 18.74% | Growth Percent [16]: 2.34% | Growth Percent [17]: −25.71% | Growth Percent [18]: 20.97% | Growth Percent [19]: 12.34% | Growth Percent [20]: −20.49% | Growth Percent [21]: 31.12% | Growth Percent [22]: 32.72% | Growth Percent [23]: 21.42% | Growth Percent [24]: 9.56% | Growth Percent [25]: 31.40% | Growth Percent [26]: 22.86% | Growth Percent [27]: −36.78% | Growth Percent [28]: 20.14% | Growth Percent [29]: −3.33% | Growth Percent [30]: 17.87% | Growth Percent [31]: 4.26% | Growth Percent [32]: 7.45%

CC1CCC2C(C)C(OCc3ccc(C(=O)NN=Cc4ccccc4O)cc3)OC3OC4(C)CCC1C32OO4 (stereo not drawn) [ART-Phe-Sal, N′-(2-hydroxybenzylidene)-4-(dihydroxyartemisinin-methyl)-phenyl carbohydrazide]
Growth Percent [1]: 34.12% | Growth Percent [2]: 13.24% | Growth Percent [3]: −44.93% | Growth Percent [4]: 12.31% | Growth Percent [5]: 10.80% | Growth Percent [6]: 31.01% | Growth Percent [7]: −17.67% | Growth Percent [8]: 47.38% | Growth Percent [9]: 26.59% | Growth Percent [10]: −2.87% | Growth Percent [11]: 10.84% | Growth Percent [12]: 32.15% | Growth Percent [13]: 1.55% | Growth Percent [14]: 12.70% | Growth Percent [15]: 15.04% | Growth Percent [16]: −19.45% | Growth Percent [17]: −30.65% | Growth Percent [18]: 56.27% | Growth Percent [19]: 28.62% | Growth Percent [20]: −18.69% | Growth Percent [21]: 31.46% | Growth Percent [22]: 22.93% | Growth Percent [23]: 17.87% | Growth Percent [24]: 22.87% | Growth Percent [25]: 24.17% | Growth Percent [26]: 8.87% | Growth Percent [27]: 0.33% | Growth Percent [28]: −20.76% | Growth Percent [29]: 0.59% | Growth Percent [30]: 17.18% | Growth Percent [31]: 27.53% | Growth Percent [32]: 10.40%

Source: patent US7692030B2, “Conjugates of artemisinin-related endoperoxides and hydrazone derivatives for the treatment of cancer” (University of Washington, priority 2006, dated 2010)
